In patent US6809065B2, “Herbicide containing substituted pyrazole derivative as active ingredient” (SDS Biotech K.K., priority 2001, dated 2004):

Legend:
Chenopodium album [1] = experiment: Upland field foliage treatment (Test Example 1); assay type: in vivo; conditions: foliage treatment 14th day after sowing, wettable powder, 1 kg active ingredient per hectare, evaluated 21st day after application
Outline: (§1)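 Foliage application took place two weeks after sowing, at an active-ingredient rate of 1 kg/ha from a water-diluted wettable powder. Rating followed on the 21st day after application, using an index scale on which crop values rise as injury increases.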

Stellaria media [2] = experiment: Upland field foliage treatment (Test Example 1); assay type: in vivo; conditions: foliage treatment 14th day after sowing, wettable powder, 1 kg active ingredient per hectare, evaluated 21st day after application
Outline: as §1

Digitaria adscendens [3] = experiment: Upland field foliage treatment (Test Example 1); assay type: in vivo; conditions: foliage treatment 14th day after sowing, wettable powder, 1 kg active ingredient per hectare, evaluated 21st day after application
Outline: as §1

Setaria viridis [4] = experiment: Upland field foliage treatment (Test Example 1); assay type: in vivo; conditions: foliage treatment 14th day after sowing, wettable powder, 1 kg active ingredient per hectare, evaluated 21st day after application
Outline: as §1

Scirpus juncoides = experiment: Paddy field treatment (Test Example 3); assay type: in vivo; conditions: paddy pot, submerged 4 cm, dropped on water surface 10th day after transplantation, 1 kg active ingredient per hectare, evaluated 21st day
Outline: (§2)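 Index scores for herbicidal effect were read 21 days after treatment, higher meaning stronger effect. Treatment was a water-diluted wettable powder dropped onto flooded paddy soil at 1 kg active ingredient per hectare, 10 days after rice transplantation.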

Monochoria vaginalis = experiment: Paddy field treatment (Test Example 3); assay type: in vivo; conditions: paddy pot, submerged 4 cm, dropped on water surface 10th day after transplantation, 1 kg active ingredient per hectare, evaluated 21st day
Outline: as §2

Ammannia multiflora = experiment: Paddy field treatment (Test Example 3); assay type: in vivo; conditions: paddy pot, submerged 4 cm, dropped on water surface 10th day after transplantation, 1 kg active ingredient per hectare, evaluated 21st day
Outline: as §2

[5] = tested on: rice (Oryza sative, variety: Koshihikari); experiment: Paddy field treatment (Test Example 3), crop; assay type: in vivo, Oryza sativa; conditions: transplanted rice two-leaf period, water surface treatment 10th day after transplantation, 1 kg active ingredient per hectare, evaluated 21st day, lower index = higher safety
Outline: as §2

Chenopodium album [6] = experiment: Upland soil treatment (Test Example 2); assay type: in vivo; conditions: soil surface treatment next day after sowing, wettable powder, 1 kg active ingredient per hectare, evaluated 21st day after application
Outline: (§3)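 Upland soil in pots was sown with weed and crop seeds, covered with about 1 cm soil, and next day sprayed on the surface with wettable-powder formulation at 1 kg active ingredient per hectare. Effects were scored by index on day 21; higher index means stronger weed control, lower index means better crop safety.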

Stellaria media [7] = experiment: Upland soil treatment (Test Example 2); assay type: in vivo; conditions: soil surface treatment next day after sowing, wettable powder, 1 kg active ingredient per hectare, evaluated 21st day after application
Outline: as §3

Digitaria adscendens [8] = experiment: Upland soil treatment (Test Example 2); assay type: in vivo; conditions: soil surface treatment next day after sowing, wettable powder, 1 kg active ingredient per hectare, evaluated 21st day after application
Outline: as §3

Setaria viridis [9] = experiment: Upland soil treatment (Test Example 2); assay type: in vivo; conditions: soil surface treatment next day after sowing, wettable powder, 1 kg active ingredient per hectare, evaluated 21st day after application
Outline: as §3

[10] = tested on: wheat (Triticum aestivum); experiment: Upland soil treatment (Test Example 2), crop; assay type: in vivo; conditions: soil surface treatment next day after sowing, 1 kg active ingredient per hectare, evaluated 21st day, lower index = higher safety
Outline: as §3

soybean (Glycine max) [11] = experiment: Upland soil treatment (Test Example 2), crop; assay type: in vivo; conditions: soil surface treatment next day after sowing, 1 kg active ingredient per hectare, evaluated 21st day, lower index = higher safety
Outline: as §3

[12] = tested on: wheat (Triticum aestivum); experiment: Upland field foliage treatment (Test Example 1), crop; assay type: in vivo; conditions: foliage treatment 14th day after sowing, 1 kg active ingredient per hectare, evaluated 21st day, lower index = higher safety
Outline: as §1

soybean (Glycine max) [13] = experiment: as above; assay type: in vivo; conditions: foliage treatment 14th day after sowing, 1 kg active ingredient per hectare, evaluated 21st day, lower index = higher safety
Outline: as §1

Echinochloa spp. = experiment: Paddy field treatment (Test Example 3); assay type: in vivo, Echinochloa crusgalli; conditions: paddy pot, submerged 4 cm, dropped on water surface 10th day after transplantation, 1 kg active ingredient per hectare, evaluated 21st day
Outline: as §2

Row | Compound | Herbicidal activity Chenopodium album (Chenopodium album [1]) | Herbicidal activity Stellaria media (Stellaria media [2]) | Herbicidal activity Digitaria adscendens (Digitaria adscendens [3]) | Herbicidal activity Setaria viridis (Setaria viridis [4]) | Herbicidal activity Scirpus juncoides (Scirpus juncoides) | Herbicidal activity Monochoria vaginalis (Monochoria vaginalis) | Herbicidal activity Ammannia multiflora (Ammannia multiflora) | Herbicidal activity Oryza sativa [5] | Herbicidal activity Chenopodium album (Chenopodium album [6]) | Herbicidal activity Stellaria media (Stellaria media [7]) | Herbicidal activity Digitaria adscendens (Digitaria adscendens [8]) | Herbicidal activity Setaria viridis (Setaria viridis [9]) | Herbicidal activity Triticum aestivum [10] | Herbicidal activity Glycine max (soybean (Glycine max) [11]) | Herbicidal activity Triticum aestivum [12] | Herbicidal activity Glycine max (soybean (Glycine max) [13]) | Herbicidal activity Echinochloa spp. (Echinochloa spp.)
1 | CCc1c(Cl)c(-c2ccccc2)nn1CC(=COC)C(=O)OC [Compound 39] | 5 (herbicidal effect of not less than 90% by weight) | 5 (herbicidal effect of not less than 90% by weight) | 4 (herbicidal effect of not less than 70% by weight and less than 90% by weight) | 4 (herbicidal effect of not less than 70% by weight and less than 90% by weight) | 4 (herbicidal effect of not less than 70% by weight and less than 90% by weight) | 3 (herbicidal effect of not less than 50% by weight and less than 70% by weight) | 3 (herbicidal effect of not less than 50% by weight and less than 70% by weight) | 0 (herbicidal effect of not less than 0% by weight and less than 10% by weight) | 4 (herbicidal effect of not less than 70% by weight and less than 90% by weight) | 4 (herbicidal effect of not less than 70% by weight and less than 90% by weight) | 4 (herbicidal effect of not less than 70% by weight and less than 90% by weight) | 4 (herbicidal effect of not less than 70% by weight and less than 90% by weight) | 0 (herbicidal effect of not less than 0% by weight and less than 10% by weight) | 0 (herbicidal effect of not less than 0% by weight and less than 10% by weight) | 0 (herbicidal effect of not less than 0% by weight and less than 10% by weight) | 1 (herbicidal effect of not less than 10% by weight and less than 30% by weight) | 4 (herbicidal effect of not less than 70% by weight and less than 90% by weight)
2 | COC=C(Cn1nc(-c2cccc(C)c2)cc1C)C(=O)OC [Compound 3] | 5 (herbicidal effect of not less than 90% by weight) | 5 (herbicidal effect of not less than 90% by weight) | 4 (herbicidal effect of not less than 70% by weight and less than 90% by weight) | 5 (herbicidal effect of not less than 90% by weight) | 3 (herbicidal effect of not less than 50% by weight and less than 70% by weight) | 4 (herbicidal effect of not less than 70% by weight and less than 90% by weight) | 4 (herbicidal effect of not less than 70% by weight and less than 90% by weight) | 0 (herbicidal effect of not less than 0% by weight and less than 10% by weight) | 4 (herbicidal effect of not less than 70% by weight and less than 90% by weight) | 4 (herbicidal effect of not less than 70% by weight and less than 90% by weight) | 4 (herbicidal effect of not less than 70% by weight and less than 90% by weight) | 4 (herbicidal effect of not less than 70% by weight and less than 90% by weight) | 0 (herbicidal effect of not less than 0% by weight and less than 10% by weight) | 0 (herbicidal effect of not less than 0% by weight and less than 10% by weight) | 0 (herbicidal effect of not less than 0% by weight and less than 10% by weight) | 0 (herbicidal effect of not less than 0% by weight and less than 10% by weight) | 3 (herbicidal effect of not less than 50% by weight and less than 70% by weight)
3 | COC=C(Cn1cc(Cl)c(-c2ccccc2)n1)C(=O)OC [Compound 15] | 5 (herbicidal effect of not less than 90% by weight) | 5 (herbicidal effect of not less than 90% by weight) | 5 (herbicidal effect of not less than 90% by weight) | 5 (herbicidal effect of not less than 90% by weight) | 5 (herbicidal effect of not less than 90% by weight) | 5 (herbicidal effect of not less than 90% by weight) | 5 (herbicidal effect of not less than 90% by weight) | 0 (herbicidal effect of not less than 0% by weight and less than 10% by weight) | 5 (herbicidal effect of not less than 90% by weight) | 5 (herbicidal effect of not less than 90% by weight) | 5 (herbicidal effect of not less than 90% by weight) | 5 (herbicidal effect of not less than 90% by weight) | 0 (herbicidal effect of not less than 0% by weight and less than 10% by weight) | 0 (herbicidal effect of not less than 0% by weight and less than 10% by weight) | 0 (herbicidal effect of not less than 0% by weight and less than 10% by weight) | 1 (herbicidal effect of not less than 10% by weight and less than 30% by weight) | 5 (herbicidal effect of not less than 90% by weight)
4 | COC=C(Cn1nc(-c2ccccc2)c(Br)c1SC)C(=O)OC [Compound 44] | 4 (herbicidal effect of not less than 70% by weight and less than 90% by weight) | 4 (herbicidal effect of not less than 70% by weight and less than 90% by weight) | 4 (herbicidal effect of not less than 70% by weight and less than 90% by weight) | 4 (herbicidal effect of not less than 70% by weight and less than 90% by weight) | 3 (herbicidal effect of not less than 50% by weight and less than 70% by weight) | 3 (herbicidal effect of not less than 50% by weight and less than 70% by weight) | 3 (herbicidal effect of not less than 50% by weight and less than 70% by weight) | 0 (herbicidal effect of not less than 0% by weight and less than 10% by weight) | 4 (herbicidal effect of not less than 70% by weight and less than 90% by weight) | 4 (herbicidal effect of not less than 70% by weight and less than 90% by weight) | 4 (herbicidal effect of not less than 70% by weight and less than 90% by weight) | 4 (herbicidal effect of not less than 70% by weight and less than 90% by weight) | 0 (herbicidal effect of not less than 0% by weight and less than 10% by weight) | 0 (herbicidal effect of not less than 0% by weight and less than 10% by weight) | 0 (herbicidal effect of not less than 0% by weight and less than 10% by weight) | 0 (herbicidal effect of not less than 0% by weight and less than 10% by weight) | 3 (herbicidal effect of not less than 50% by weight and less than 70% by weight)
